Data set [1] in a line: Cytotoxicity against human MRC5 cells assessed as reduction in cell viability incubated for 24 hrs by MTS assay. Type of data set: cell-based. As to conditions: read-out: LC50. (Tetrazolium dyes change colour on reduction, which living cells bring about.)
Data set [2] can be described thus: (§1) Induction of hemolysis in Sprague-Dawley rat erythrocytes incubated at 37 degC for 60 mins by spectrophotometry. Format: cell-based, Erythrocyte. As to conditions: Sprague-Dawley, erythrocytes, read-out: HD50.
A further data set relates to Erythrocyte. The description is as §1. Format: cell-based. As to conditions: erythrocyte, 1 h.
Data set [3] is described as follows: Induction of hemolysis in Sprague-Dawley rat erythrocytes at 200 uM incubated at 37 degC for 60 mins by spectrophotometry. As to conditions: read-out: Activity. Format: cell-based, Erythrocyte.
The next data set relates to Bacillus subtilis. Briefly: Antibacterial activity against Bacillus subtilis then incubated at 37 degC for 24 hrs by broth dilution assay. Format: functional. A general note: In broth dilution the organism is exposed to a series of concentrations in liquid medium.
The subject of another data set is Escherichia coli. Briefly: Antibacterial activity against Escherichia coli then incubated at 37 degC for 24 hrs by broth dilution assay. Format: functional.
A short description of data set [4]: Cytotoxicity against human Jurkat cells assessed as reduction in cell viability incubated for 24 hrs by MTS assay. As to conditions: read-out: LC50. Format: cell-based.
Data set [5] in a line: Cytotoxicity against human LNCAP cells assessed as reduction in cell viability incubated for 24 hrs by MTS assay. Type of data set: cell-based. The settings on record: read-out: LC50.

Structures are written as SMILES. In brackets after ≈: the same amount, converted by molar mass. Non-standard residues stand in square brackets, D forms with d. Residues, ends and D or L forms follow the SMILES beside them. Nspe = C[C@H](NCC(=O)O)c1ccccc1; Nlys = NCCCCNCC(=O)O

One may read the MIC as the lowest concentration that inhibits growth of the organism. Read a low MIC as inhibition by little substance.

Regarding `C[C@@H](c1ccccc1)N(CC(=O)N(CCCCN)CC(=O)N(CC(=O)N(CC(=O)N(CCCCN)CC(=O)N(CC(=O)N(CC(=O)N(CCCCN)CC(=O)N(CC(=O)N(CC(=O)N(CCCCN)CC(N)=O)[C@@H](C)c1ccccc1)[C@@H](C)c1ccccc1)[C@@H](C)c1ccccc1)[C@@H](C)c1ccccc1)[C@@H](C)c1ccccc1)[C@@H](C)c1ccccc1)C(=O)CN(C(=O)CNCCCCN)[C@@H](C)c1ccccc1` (H-[Nlys][Nspe][Nspe][Nlys][Nspe][Nspe][Nlys][Nspe][Nspe][Nlys][Nspe][Nspe][Nlys]-NH2), the CC50 at 24 h came to 10 µM in data set [1] and 5.04 µM in data set [4]. Moreover, the HC50 at 1 h in data set [2] is more than 200 µM. The molecule further displayed an HD10 in the data set on Erythrocyte of 19.5 µM. In data set [3], the hemolysis at 1 h, 200 µM turned out to be 48.1%. For the same molecule, the MIC was 0.4 µM (≈ 0.779 µg/mL) with Bacillus subtilis and 1.6 µM (≈ 3.12 µg/mL) in the data set on Escherichia coli.
As for `C[C@@H](c1ccc(Cl)cc1)N(CC(N)=O)C(=O)CN(C(=O)CN(CCCCN)C(=O)CN(C(=O)CN(C(=O)CN(CCCCN)C(=O)CN(C(=O)CN(C(=O)CN(CCCCN)C(=O)CN(C(=O)CN(C(=O)CNCCCCN)[C@@H](C)c1ccc(Cl)cc1)[C@@H](C)c1ccc(Cl)cc1)[C@@H](C)c1ccc(Cl)cc1)[C@@H](C)c1ccc(Cl)cc1)[C@@H](C)c1ccc(Cl)cc1)[C@@H](C)c1ccc(Cl)cc1)[C@@H](C)c1ccc(Cl)cc1`, the CC50 at 24 h worked out at 3 µM in data set [1], 10 µM in data set [5] and 1.58 µM in data set [4]. In data set [2], the HC50 at 1 h was 10.4 µM. This molecule registered an HD10 in the data set on Erythrocyte of less than 6.25 µM. For the same molecule, the hemolysis at 1 h, 200 µM in data set [3] turned out to be 100%. The values for the minimal inhibitory concentration (MIC) in the data set with Bacillus subtilis and in the data set with Escherichia coli were 6.1 µM (≈ 12.8 µg/mL) and more than 6.1 µM, respectively.
Regarding `C[C@@H](c1ccccc1)N(CC(=O)N(CCCCN)CC(=O)N(CC(=O)N(CC(=O)N(CCCCN)CC(=O)N(CC(=O)N(CC(=O)N(CCCCN)CC(N)=O)[C@@H](C)c1ccccc1)[C@@H](C)c1ccccc1)[C@@H](C)c1ccccc1)[C@@H](C)c1ccccc1)C(=O)CN(C(=O)CNCCCCN)[C@@H](C)c1ccccc1` (H-[Nlys][Nspe][Nspe][Nlys][Nspe][Nspe][Nlys][Nspe][Nspe][Nlys]-NH2), the CC50 at 24 h in data set [1] is 80.5 µM; in data set [4], 28.9 µM. Also, the HC50 at 1 h in data set [2] was more than 200 µM. In the data set on Erythrocyte, this molecule had an HD10 of more than 200 µM. The hemolysis at 1 h, 200 µM in data set [3] amounted to 9.8%. The minimum inhibitory concentration (MIC) with Bacillus subtilis was 0.8 µM (≈ 1.2 µg/mL); against Escherichia coli, 1.6 µM (≈ 2.4 µg/mL).
As to `C[C@H](c1ccccc1)N(CC(N)=O)C(=O)CN(C(=O)CN(CCCCN)C(=O)CN(C(=O)CN(C(=O)CN(CCCCN)C(=O)CN(C(=O)CN(C(=O)CNCCCCN)[C@H](C)c1ccccc1)[C@@H](C)c1ccccc1)[C@H](C)c1ccccc1)[C@@H](C)c1ccccc1)[C@H](C)c1ccccc1` (stereo in doubt), the CC50 at 24 h in data set [1] was found to be 40 µM; in data set [5], 27 µM; in data set [4], 18.6 µM. In addition, in data set [2], the HC50 at 1 h is more than 200 µM. Besides, in the data set on Erythrocyte, the HD10 was 119.5 µM. Further, the hemolysis at 1 h, 200 µM in data set [3] was 38.7%. Moreover, the minimal inhibitory concentration (MIC) worked out at 1.6 µM (≈ 2.19 µg/mL) with Bacillus subtilis and 3.1 µM (≈ 4.24 µg/mL) against Escherichia coli.
For `CC[C@H](C)[C@H](NC(=O)CN)C(=O)NCC(=O)N[C@@H](CCCCN)C(=O)N[C@@H](Cc1ccccc1)C(=O)N[C@@H](CC(C)C)C(=O)N[C@@H](CCCCN)C(=O)N[C@@H](CCCCN)C(=O)N[C@@H](C)C(=O)N[C@@H](CCCCN)C(=O)N[C@@H](CCCCN)C(=O)N[C@@H](Cc1ccccc1)C(=O)NCC(=O)N[C@@H](CCCCN)C(=O)N[C@@H](C)C(=O)N[C@@H](Cc1ccccc1)C(=O)N[C@H](C(=O)N[C@@H](CCCCN)C(=O)N[C@H](C(=O)N[C@@H](CC(C)C)C(=O)N[C@@H](CCCCN)C(=O)N[C@@H](CCCCN)C(N)=O)[C@@H](C)CC)C(C)C` [PEXIGANAN] (H-GIGKFLKKAKKFGKAFVKILKK-NH2), in data set [1], the CC50 at 24 h is 21.2 µM. Also, in data set [2], the HC50 at 1 h is more than 200 µM. Also, in the data set with Erythrocyte, the HD10 came to 113.4 µM. For the same molecule, the hemolysis at 1 h, 200 µM in data set [3] came out at 21.5%. In addition, the results for the MIC with Bacillus subtilis and in the data set with Escherichia coli were 0.4 µM (≈ 0.991 µg/mL) and 0.8 µM (≈ 1.98 µg/mL), respectively.
Turning to `Cc1ccc([C@H](C)N(CC(N)=O)C(=O)CN(C(=O)CN(CCCCN)C(=O)CN(C(=O)CN(C(=O)CN(CCCCN)C(=O)CN(C(=O)CN(C(=O)CN(CCCCN)C(=O)CN(C(=O)CN(C(=O)CNCCCCN)[C@@H](C)c2ccc(C)cc2)[C@@H](C)c2ccc(C)cc2)[C@@H](C)c2ccc(C)cc2)[C@@H](C)c2ccc(C)cc2)[C@@H](C)c2ccc(C)cc2)[C@@H](C)c2ccc(C)cc2)[C@@H](C)c2ccc(C)cc2)cc1`, the CC50 at 24 h in data set [1] turned out to be 8 µM; in data set [5], 12 µM. The HC50 at 1 h in data set [2] was 8.3 µM. The same molecule had an HD10 with Erythrocyte of less than 6.25 µM. Besides, the hemolysis at 1 h, 200 µM in data set [3] came out at 100%. The results for the minimum inhibitory concentration (MIC) in the data set on Bacillus subtilis and against Escherichia coli were 0.8 µM (≈ 1.55 µg/mL) and more than 6.1 µM, respectively.
As for `C[C@@H](c1ccc(F)cc1)N(CC(N)=O)C(=O)CN(C(=O)CN(CCCCN)C(=O)CN(C(=O)CN(C(=O)CN(CCCCN)C(=O)CN(C(=O)CN(C(=O)CN(CCCCN)C(=O)CN(C(=O)CN(C(=O)CNCCCCN)[C@@H](C)c1ccc(F)cc1)[C@@H](C)c1ccc(F)cc1)[C@@H](C)c1ccc(F)cc1)[C@@H](C)c1ccc(F)cc1)[C@@H](C)c1ccc(F)cc1)[C@@H](C)c1ccc(F)cc1)[C@@H](C)c1ccc(F)cc1`, the CC50 at 24 h was 9.5 µM in data set [1], 9.5 µM in data set [5] and 2.47 µM in data set [4]. In data set [2], the HC50 at 1 h is less than 6.25 µM. This molecule had an HD10 in the data set with Erythrocyte of less than 6.25 µM. The hemolysis at 1 h, 200 µM in data set [3] came to 100%. Also, the MIC in the data set on Bacillus subtilis was 0.4 µM (≈ 0.785 µg/mL); with Escherichia coli it was 3.1 µM (≈ 6.09 µg/mL).
Take `C[C@@H](c1ccccc1)N(CC(N)=O)C(=O)CN(C(=O)CN(CCCCN)C(=O)CN(C(=O)CN(C(=O)CN(CCCCN)C(=O)CN(C(=O)CN(C(=O)CN(CCCCN)C(=O)CN(C(=O)CN(C(=O)CNCCCCN)[C@@H](C)c1ccccc1)[C@@H](C)c1ccccc1)[C@@H](C)c1ccccc1)[C@@H](C)c1ccccc1)[C@@H](C)c1ccccc1)[C@@H](C)c1ccccc1)[C@@H](C)c1ccccc1` (H-[Nlys][Nspe][Nspe][Nlys][Nspe][Nspe][Nlys][Nspe][Nspe][Nlys][Nspe][Nspe]-NH2): the figures for the CC50 at 24 h in data set [1], in data set [5] and in data set [4] were 8 µM, 5 µM and 2.21 µM, respectively. For the same molecule, the HC50 at 1 h in data set [2] stood at 63.4 µM. Besides, the HD10 in the data set on Erythrocyte is 9.1 µM. For the same molecule, in data set [3], the hemolysis at 1 h, 200 µM is 100%. The MIC in the data set with Bacillus subtilis is 0.8 µM (≈ 1.46 µg/mL); against Escherichia coli it was 1.6 µM (≈ 2.91 µg/mL).

(Values after ChEMBL document CHEMBL4177724, “Effect of side chain hydrophobicity and cationic charge on antimicrobial activity and cytotoxicity of helical peptoids” (Bioorg Med Chem Lett, 2018).)
